Data set [1] has as its system Candida albicans. Briefly: Antifungal activity against Candida albicans isolate 1 assessed as reduction in fungal growth incubated for 48 hrs by broth microdilution method. It counts as functional. (In general: Broth dilution looks for growth in wells or tubes with falling amounts of substance.)
Data set [2] deals with Candida albicans. Briefly: Antifungal activity against Candida albicans isolate 2 assessed as reduction in fungal growth incubated for 48 hrs by broth microdilution method. It counts as functional.
Data set [3] deals with Candida albicans. As to the kind of experiment: Antifungal activity against Candida albicans isolate 3 assessed as reduction in fungal growth incubated for 48 hrs by broth microdilution method. The format is functional.
Data set [4] concerns Candida albicans. Briefly: Antifungal activity against Candida albicans isolate 4 assessed as reduction in fungal growth incubated for 48 hrs by broth microdilution method. The format is functional.
Data set [5] has as its system Candida albicans. Briefly: Antifungal activity against Candida albicans isolate 5 assessed as reduction in fungal growth incubated for 48 hrs by broth microdilution method. It counts as functional.
Data set [6] relates to Candida albicans. As to the kind of experiment: Fungicidal activity against Candida albicans isolate 1 assessed as fungal killing incubated for 48 hrs followed by plating on SD agar plate. It counts as functional. To be noted: read-out: MFC99.9.
Data set [7] relates to Candida albicans. Briefly: Fungicidal activity against Candida albicans isolate 2 assessed as fungal killing incubated for 48 hrs followed by plating on SD agar plate. It counts as functional. As to conditions: read-out: MFC99.9.
In data set [8] the test system is Candida albicans. As to the kind of experiment: Fungicidal activity against Candida albicans isolate 3 assessed as fungal killing incubated for 48 hrs followed by plating on SD agar plate. It counts as functional. As to conditions: read-out: MFC99.9.
Data set [9] has as its system Candida albicans. As to the kind of experiment: Fungicidal activity against Candida albicans isolate 4 assessed as fungal killing incubated for 48 hrs followed by plating on SD agar plate. The format is functional. To be noted: read-out: MFC99.9.
In data set [10] the test system is Candida albicans. As to the kind of experiment: Fungicidal activity against Candida albicans isolate 5 assessed as fungal killing incubated for 48 hrs followed by plating on SD agar plate. The format is functional. As to conditions: read-out: MFC99.9.
For data set [11], the system named is Candida albicans. As to the kind of experiment: Fungicidal activity against Candida albicans ATCC 10231 assessed as reduction in fungal load at 1 ug/ml incubated for 8 hrs followed by inoculation on SD agar plate for 48 hrs by time-kill assay. It counts as functional, organism-based. To be noted: dose 1.0 µg/ml, time 56.0 hrs.
Data set [12] is described as follows: Toxicity in Swiss mouse assessed as body weight at 1 mg/kg, ip measured after 24 hrs (reference value: 36.25 +/- 0.31 g). It counts as organism-based. As to conditions: in vivo.
A short description of data set [13]: Toxicity in Swiss mouse assessed as relative lung weight at 1 mg/kg, ip measured after 24 hrs (reference value: 6.35 +/- 0.68 g). The format is organism-based. To be noted: in vivo.
A short description of data set [14]: Toxicity in Swiss mouse assessed as relative kidney weight at 1 mg/kg, ip measured after 24 hrs (reference value: 14.91 +/- 0.99 g). As to conditions: in vivo. The format is organism-based.
Data set [15] is described as follows: Toxicity in Swiss mouse assessed as relative spleen weight at 1 mg/kg, ip measured after 24 hrs (reference value: 4.02 +/- 0.59 g). It counts as organism-based. To be noted: in vivo.
Data set [16] can be described thus: Toxicity in Swiss mouse assessed as relative heart weight at 1 mg/kg, ip measured after 24 hrs (reference value: 4.75 +/- 0.60 g). The format is organism-based. As to conditions: in vivo.
Data set [17] can be described thus: Toxicity in Swiss mouse assessed as relative liver weight at 1 mg/kg, ip measured after 24 hrs (reference value: 49.42 +/- 7.17 g). The format is organism-based. To be noted: in vivo.
The subject of data set [18] is Candida albicans. As to the kind of experiment: In vivo antifungal activity in Swiss mouse infected with Candida albicans ATCC 10231 assessed as reduction in fungal load in liver at 1 mg/kg, ip administered at 2, 24 and 48 hrs post-infection and measured per gm of organ at 24 hrs post-last dose (reference value: 1.80). It counts as functional. As to conditions: time 72.0 hrs.

Data set [19] has as its system Candida albicans. As to the kind of experiment: In vivo antifungal activity in Swiss mouse infected with Candida albicans ATCC 10231 assessed as reduction in fungal load in kidney at 1 mg/kg, ip administered at 2, 24 and 48 hrs post-infection and measured per gm of organ at 24 hrs post-last dose (reference value: 2.47). It counts as functional. To be noted: time 72.0 hrs.

The test system of data set [20] is Candida albicans. Briefly: In vivo antifungal activity in Swiss mouse infected with Candida albicans ATCC 10231 assessed as reduction in fungal load in spleen at 1 mg/kg, ip administered at 2, 24 and 48 hrs post-infection and measured per gm of organ at 24 hrs post-last dose (reference value: 2.34). It counts as functional. To be noted: time 72.0 hrs.
Data set [21] has as its system Candida albicans. As to the kind of experiment: In vivo antifungal activity in Swiss mouse infected with Candida albicans ATCC 10231 assessed as reduction in fungal load in liver at 10 mg/kg, ip administered at 2, 24 and 48 hrs post-infection and measured per gm of organ at 24 hrs post-last dose (reference value: 1.80). To be noted: time 72 hrs. The format is functional.

Data set [22] concerns Candida albicans. As to the kind of experiment: In vivo antifungal activity in Swiss mouse infected with Candida albicans ATCC 10231 assessed as reduction in fungal load in kidney at 10 mg/kg, ip administered at 2, 24 and 48 hrs post-infection and measured per gm of organ at 24 hrs post-last dose (reference value: 2.47). The format is functional, organism-based. To be noted: time 72.0 hrs.

Data set [23] relates to Candida albicans. As to the kind of experiment: In vivo antifungal activity in Swiss mouse infected with Candida albicans ATCC 10231 assessed as reduction in fungal load in spleen at 10 mg/kg, ip administered at 2, 24 and 48 hrs post-infection and measured per gm of organ at 24 hrs post-last dose (reference value: 2.34). To be noted: time 72.0 hrs. It counts as functional, organism-based.

The term MIC denotes the smallest concentration in the dilution series that meets the test's criterion for growth inhibition.

Values after ≈ are worked out from the molar mass of the structure shown. Active and inactive are the calls of the source.

As for `C[C@@H]1[C@H](O)[C@@H](C)/C=C/C=C/C=C/C=C/C=C/C=C/C=C/[C@H](O[C@@H]2O[C@H](C)[C@@H](O)[C@H](N)[C@@H]2O)C[C@@H]2O[C@](O)(C[C@@H](O)C[C@@H](O)[C@H](O)CC[C@@H](O)C[C@@H](O)CC(=O)O[C@H]1C)C[C@H](O)[C@H]2C(=O)O` [AMPHOTERICIN B], the minimal inhibitory concentration (MIC) worked out at 39 µg/mL (≈ 42.2 µM) in data set [1]; 39 µg/mL (≈ 42.2 µM) in [2]; 39 µg/mL (≈ 42.2 µM) in [3]; 156 µg/mL (≈ 169 µM) in [4]; 39 µg/mL (≈ 42.2 µM) in [5]. The MFC in data set [6] stood at 78.1 µg/mL (≈ 84.5 µM); in data set [7], 312 µg/mL (≈ 338 µM); in [8] it was 39 µg/mL (≈ 42.2 µM); in [9] it was 625 µg/mL (≈ 676 µM); in data set [10] it was 78.1 µg/mL (≈ 84.5 µM). In addition, the outcome in data set [11], in [18], in data set [19], in data set [20], in [22] and in [23] was Active. Besides, the Activity in data set [12] was 31.12 g; in [13], 6.51 g; in [14], 15.56 g; in data set [15], 4.14 g; in [16] it was 5.94 g; in data set [17], 49.34 g. In data set [21], the Activity came out at 1.51 log10CFU.
